Source: patent US20180179256A1 (priority 2015, published 2018)

System: HLA-DR
Assay type: cell-based, human

“RGILKRNSSSSSTDS [5-HUMAN-B, reference compound]” was tested, and the “% Inhibition by HLA-DR blocking Ab” value was 100%.
